Species: Rattus norvegicus
Assay: Open TG-GATES - Regimen: Single
Format: toxicity, organism-based, Sprague-Dawley
Parameters: regimen Single, gender Male, age 6 weeks
Conditions: in vivo, po, 0 mg/kg, route gavage, dose level Control; for APTT / Bas / Eos / Fbg / Hb / Ht / Lym / MCH / MCHC / MCV / Mono / Neu / PT / Plat / RBC / Ret / WBC: tissue Blood; for KIDNEY_L / KIDNEY_R / KIDNEY_TOTAL: tissue Kidney; for LIVER: tissue Liver; for A/G / ALP / ALT / AST / BUN / CRE / Ca / Cl / DBIL / GLC / IP / K / LDH / Na / PL / RALB / TBIL / TC / TG / TP / gamma-GTP: tissue Plasma

CC(S)C(=O)NCC(=O)O (configuration not stated) [TIOPRONIN]
TERMINAL_BW (3 h): 208.8 g
APTT (3 h): 22.5 s
Bas (3 h): 0%
Eos (3 h): 0.8%
Fbg (3 h): 292.4 mg/dL
Hb (3 h): 13.1 g/dL
Ht (3 h): 40.4%
Lym (3 h): 81.6%
MCH (3 h): 20.2 pg
MCHC (3 h): 32.5%
MCV (3 h): 62.3 fL
Mono (3 h): 1.4%
Neu (3 h): 15.8%
PT (3 h): 16.1 s
Plat (3 h): 120.4 x10_4/uL
RBC (3 h): 649.6 x10_4/ul
Ret (3 h): 7.5%
WBC (3 h): 75.2 x10_2/uL
KIDNEY_L (3 h): 0.9 g
KIDNEY_R (3 h): 0.9 g
KIDNEY_TOTAL (3 h): 1.8 g
LIVER (3 h): 9.1 g
A/G (3 h): 1.2
ALP (3 h): 2032.2 IU/L
ALT (3 h): 46 IU/L
AST (3 h): 80.4 IU/L
BUN (3 h): 11.4 mg/dL
CRE (3 h): 0.1 mg/dL
Ca (3 h): 10.7 mg/dL
Cl (3 h): 107 meq/L
DBIL (3 h): 0.002 mg/dL
GLC (3 h): 190.8 mg/dL
IP (3 h): 7.7 mg/dL
K (3 h): 4.1 meq/L
LDH (3 h): 203.8 IU/L
Na (3 h): 143.8 meq/L
PL (3 h): 128.6 mg/dL
RALB (3 h): 2.9 g/dL
TBIL (3 h): 0.02 mg/dL
TC (3 h): 70.8 mg/dL
TG (3 h): 65.4 mg/dL
TP (3 h): 5.4 g/dL
gamma-GTP (3 h): 1.8 IU/L
TERMINAL_BW (6 h): 208.1 g
APTT (6 h): 21.5 s
Bas (6 h): 0%
Eos (6 h): 0.2%
Fbg (6 h): 295.4 mg/dL
Hb (6 h): 13 g/dL
Ht (6 h): 39.8%
Lym (6 h): 83%
MCH (6 h): 21 pg
MCHC (6 h): 32.8%
MCV (6 h): 64.1 fL
Mono (6 h): 1.8%
Neu (6 h): 14.2%
PT (6 h): 15.8 s
Plat (6 h): 116.3 x10_4/uL
RBC (6 h): 621 x10_4/ul
Ret (6 h): 8.1%
WBC (6 h): 116.1 x10_2/uL
KIDNEY_L (6 h): 0.9 g
KIDNEY_R (6 h): 1 g
KIDNEY_TOTAL (6 h): 1.9 g
LIVER (6 h): 9 g
A/G (6 h): 1.2
ALP (6 h): 1487.4 IU/L
ALT (6 h): 39 IU/L
AST (6 h): 69.6 IU/L
BUN (6 h): 10.6 mg/dL
CRE (6 h): 0.1 mg/dL
Ca (6 h): 10.5 mg/dL
Cl (6 h): 106.4 meq/L
DBIL (6 h): 0.002 mg/dL
GLC (6 h): 184.2 mg/dL
IP (6 h): 8.8 mg/dL
K (6 h): 4.4 meq/L
LDH (6 h): 154.4 IU/L
Na (6 h): 143.8 meq/L
PL (6 h): 141.4 mg/dL
RALB (6 h): 2.9 g/dL
TBIL (6 h): 0.022 mg/dL
TC (6 h): 80.2 mg/dL
TG (6 h): 72.2 mg/dL
TP (6 h): 5.3 g/dL
gamma-GTP (6 h): 1.6 IU/L
TERMINAL_BW (9 h): 209.7 g
APTT (9 h): 22.9 s
Bas (9 h): 0%
Eos (9 h): 0.8%
Fbg (9 h): 294.2 mg/dL
Hb (9 h): 12.7 g/dL
Ht (9 h): 39.4%
Lym (9 h): 81.6%
MCH (9 h): 19.9 pg
MCHC (9 h): 32.1%
MCV (9 h): 61.7 fL
Mono (9 h): 2%
Neu (9 h): 15.2%
PT (9 h): 16.2 s
Plat (9 h): 121.4 x10_4/uL
RBC (9 h): 639.2 x10_4/ul
Ret (9 h): 8.3%
WBC (9 h): 95.7 x10_2/uL
KIDNEY_L (9 h): 0.9 g
KIDNEY_R (9 h): 0.9 g
KIDNEY_TOTAL (9 h): 1.9 g
LIVER (9 h): 9.1 g
A/G (9 h): 1.1
ALP (9 h): 1667.4 IU/L
ALT (9 h): 36.2 IU/L
AST (9 h): 65.8 IU/L
BUN (9 h): 12.2 mg/dL
CRE (9 h): 0.1 mg/dL
Ca (9 h): 10.5 mg/dL
Cl (9 h): 105 meq/L
DBIL (9 h): 0 mg/dL
GLC (9 h): 195.8 mg/dL
IP (9 h): 9.8 mg/dL
K (9 h): 4.5 meq/L
LDH (9 h): 147 IU/L
Na (9 h): 143.8 meq/L
PL (9 h): 120.2 mg/dL
RALB (9 h): 2.8 g/dL
TBIL (9 h): 0.012 mg/dL
TC (9 h): 64.8 mg/dL
TG (9 h): 64.2 mg/dL
TP (9 h): 5.3 g/dL
gamma-GTP (9 h): 1.4 IU/L
TERMINAL_BW (24 h): 219.9 g
APTT (24 h): 21.2 s
Bas (24 h): 0%
Eos (24 h): 1%
Fbg (24 h): 307 mg/dL
Hb (24 h): 12.9 g/dL
Ht (24 h): 39.6%
Lym (24 h): 77.8%
MCH (24 h): 21.2 pg
MCHC (24 h): 32.7%
MCV (24 h): 64.7 fL
Mono (24 h): 3%
Neu (24 h): 17.4%
PT (24 h): 16.4 s
Plat (24 h): 115.1 x10_4/uL
RBC (24 h): 612 x10_4/ul
Ret (24 h): 7.6%
WBC (24 h): 103.4 x10_2/uL
KIDNEY_L (24 h): 1 g
KIDNEY_R (24 h): 1 g
KIDNEY_TOTAL (24 h): 2 g
LIVER (24 h): 10.1 g
A/G (24 h): 1.1
ALP (24 h): 1636.2 IU/L
ALT (24 h): 44 IU/L
AST (24 h): 74.2 IU/L
BUN (24 h): 16.6 mg/dL
CRE (24 h): 0.2 mg/dL
Ca (24 h): 10.7 mg/dL
Cl (24 h): 105.6 meq/L
DBIL (24 h): 0 mg/dL
GLC (24 h): 196.4 mg/dL
IP (24 h): 7.1 mg/dL
K (24 h): 4.4 meq/L
LDH (24 h): 179.8 IU/L
Na (24 h): 142 meq/L
PL (24 h): 135.2 mg/dL
RALB (24 h): 2.8 g/dL
TBIL (24 h): 0.004 mg/dL
TC (24 h): 75.2 mg/dL
TG (24 h): 76.8 mg/dL
TP (24 h): 5.4 g/dL
gamma-GTP (24 h): 1.4 IU/L

— ChEMBL document CHEMBL3885861, “Open TG-GATES”
